Reference: the CheMixHub viscosity set
Values joined by “and” are separate entries in the source; they are usually repeats but may differ in a detail not shown here. Identical values can stand only once.

Assay: xn = mol fraction of the nth substance listed

CC(Cl)(Cl)Cl + C1CCCCC1
303.15 K, 101 kPa
Details	viscosity [mPa·s]
x1 = 0.157	0.7897
x1 = 0.2218	0.776
x1 = 0.2876	0.7624
x1 = 0.3722	0.7462
x1 = 0.4768	0.7297
x1 = 0.543	0.7219
x1 = 0.679	0.713
x1 = 0.7525	0.7123
x1 = 0.8597	0.716
x1 = 0.9403	0.7201

CC/C(C)=N/O + C1CCCCC1
viscosity [mPa·s], 101.3 kPa
Details	x1 = 0.0972	x1 = 0.1952	x1 = 0.2926	x1 = 0.3921	x1 = 0.4913	x1 = 0.5914	x1 = 0.6926	x1 = 0.7942	x1 = 0.8967
293.15 K	1.007	1.072	1.166	1.302	1.489	1.75	2.122	2.681	3.585
298.15 K	0.923	0.982	1.065	1.182	1.339	1.567	1.884	2.347	3.035
303.15 K	0.844	0.895	0.967	1.068	1.205	1.397	1.667	2.053	2.622

CCCCCBr + C1CCCCC1
308.15 K, 101 kPa
Details	viscosity [mPa·s]
x2 = 0.0975	0.6428
x2 = 0.1991	0.6363
x2 = 0.2997	0.6323
x2 = 0.398	0.6305
x2 = 0.5025	0.6321
x2 = 0.5837	0.6355
x2 = 0.695	0.645
x2 = 0.8018	0.6614
x2 = 0.9007	0.6894

CC(Cl)(Cl)Cl + C1CCOC1
303.15 K, 101 kPa
Details	viscosity [mPa·s]
x2 = 0.0731	0.7289
x2 = 0.1213	0.7262
x2 = 0.2262	0.7112
x2 = 0.3894	0.6687
x2 = 0.4716	0.6424
x2 = 0.5677	0.6104
x2 = 0.6475	0.5834
x2 = 0.7415	0.5513
x2 = 0.8139	0.5271
x2 = 0.866	0.51

COC(=O)c1ccccc1C(=O)OC + C1CCOC1
viscosity [mPa·s], 101 kPa
Details	x1 = 0.1001	x1 = 0.2019	x1 = 0.2966	x1 = 0.3989	x1 = 0.5009	x1 = 0.5992	x1 = 0.7006	x1 = 0.8013	x1 = 0.9004
293.15 K	0.7426	1.073	1.505	2.155	3.107	4.313	6.121	8.638	12.37
298.15 K	0.7028	0.9986	1.383	1.947	2.756	3.756	5.214	7.181	9.998
303.15 K	0.666	0.9314	1.276	1.769	2.463	3.303	4.496	6.063	8.238
308.15 K	0.6197	0.8698	1.181	1.616	2.217	2.93	3.92	5.189	6.906
313.15 K	0.6531	0.8136	1.097	1.483	2.007	2.619	3.45	4.494	5.87
318.15 K	0.557	0.7619	1.021	1.365	1.828	2.357	3.063	3.933	5.056
323.15 K	0.4957	0.7137	0.9522	1.261	1.674	2.136	2.739	3.474	4.404

O=CO + C1CCOC1
298.15 K, 101 kPa
Details	viscosity [mPa·s]
x2 = 0.0662	1.443
x2 = 0.1376	1.396
x2 = 0.2148	1.328
x2 = 0.2985	1.233
x2 = 0.3896	1.114
x2 = 0.4891	0.9824
x2 = 0.5983	0.8395
x2 = 0.7186	0.6886
x2 = 0.8517	0.5576

CC(Cl)(Cl)Cl + C1COCCO1
101.33 kPa
Details	viscosity
298.15 K, x1 = 0.102	1.141 mPa·s
298.15 K, x1 = 0.201	1.097 mPa·s
298.15 K, x1 = 0.3	1.057 mPa·s
298.15 K, x1 = 0.4	1.016 mPa·s
298.15 K, x1 = 0.5	0.9762 mPa·s and 0.9767 mPa·s
298.15 K, x1 = 0.599	0.938 mPa·s
298.15 K, x1 = 0.7	0.9003 mPa·s
298.15 K, x1 = 0.8	0.8635 mPa·s
298.15 K, x1 = 0.862	0.8404 mPa·s
303.15 K, x2 = 0.0725	0.7541 mPa·s
303.15 K, x2 = 0.1135	0.771 mPa·s
303.15 K, x2 = 0.2041	0.8089 mPa·s
303.15 K, x2 = 0.336	0.8625 mPa·s
303.15 K, x2 = 0.4193	0.8943 mPa·s
303.15 K, x2 = 0.5168	0.9291 mPa·s
303.15 K, x2 = 0.6428	0.97 mPa·s
303.15 K, x2 = 0.7459	1.002 mPa·s
303.15 K, x2 = 0.8153	1.023 mPa·s
303.15 K, x2 = 0.9277	1.059 mPa·s

O=CO + C1COCO1
298.15 K, 101 kPa
Details	viscosity [mPa·s]
x2 = 0.0646	1.419
x2 = 0.1345	1.36
x2 = 0.2103	1.292
x2 = 0.2929	1.216
x2 = 0.3832	1.131
x2 = 0.4824	1.035
x2 = 0.5918	0.9302
x2 = 0.7131	0.8195
x2 = 0.8483	0.7018

CC(C)C1CCCCC1 + C1C[C@@H]2[C@H]3CC[C@H](C3)[C@@H]2C1
viscosity [mPa·s], 100 kPa
Details	x2 = 0.1002	x2 = 0.1999	x2 = 0.3001	x2 = 0.4	x2 = 0.5	x2 = 0.5999	x2 = 0.7001	x2 = 0.8003	x2 = 0.8999
293.15 K	1.194	1.305	1.431	1.578	1.741	1.938	2.165	2.421	2.706
298.15 K	1.106	1.206	1.32	1.451	1.597	1.775	1.976	2.205	2.456
303.15 K	1.029	1.119	1.222	1.34	1.471	1.631	1.812	2.016	2.241
308.15 K	0.96	1.042	1.135	1.242	1.361	1.506	1.67	1.853	2.055
313.15 K	0.898	0.973	1.058	1.156	1.265	1.397	1.543	1.709	1.891
318.15 K	0.842	0.911	0.989	1.078	1.178	1.298	1.431	1.581	1.746
323.15 K	0.793	0.855	0.927	1.009	1.1	1.21	1.331	1.467	1.616

CC(Cl)(Cl)Cl + CC1CCCCC1
303.15 K, 101 kPa
Details	viscosity [mPa·s]
x1 = 0.1468	0.6328
x1 = 0.2138	0.629
x1 = 0.31	0.6248
x1 = 0.4182	0.6239
x1 = 0.5255	0.6301
x1 = 0.5982	0.6379
x1 = 0.69	0.6518
x1 = 0.759	0.6659
x1 = 0.8273	0.6809
x1 = 0.9075	0.7009

CC(Cl)(Cl)Cl + CC1CCCO1
298.15 K, 101.33 kPa
Details	viscosity [mPa·s]
x1 = 0.099	0.5033
x1 = 0.2	0.5324
x1 = 0.299	0.5617
x1 = 0.398	0.5917
x1 = 0.5	0.6234
x1 = 0.6	0.655
x1 = 0.7	0.6873
x1 = 0.8	0.7209
x1 = 0.869	0.7447

Cc1ccc(O)cc1C + CC12CCC(CC1=O)C2(C)C
101.33 kPa, x1 = 0.7
Details	viscosity [mPa·s]
293.15 K	25.37
298.15 K	18.86
303.15 K	14.61
308.15 K	11.42
313.15 K	9.026
318.15 K	7.494
323.15 K	6.189

CC(Cl)(Cl)Cl + CC#N
303.15 K, 101.32 kPa
Details	viscosity [mPa·s]
x2 = 0.1263	0.6581
x2 = 0.2051	0.6229
x2 = 0.2652	0.5971
x2 = 0.3855	0.5476
x2 = 0.478	0.5114
x2 = 0.6358	0.4505
x2 = 0.6802	0.4339
x2 = 0.7999	0.3906
x2 = 0.8673	0.3675
x2 = 0.9074	0.3539

O=CO + CC#N
303.15 K, 101 kPa
Details	viscosity [mPa·s]
x1 = 0.0912	0.386
x1 = 0.1824	0.422
x1 = 0.2772	0.468
x1 = 0.3728	0.523
x1 = 0.4721	0.597
x1 = 0.5735	0.691
x1 = 0.6751	0.801
x1 = 0.7806	0.962
x1 = 0.8891	1.17

CC(Cl)(Cl)Cl + CC(=O)CC(C)C
298.15 K, 101.33 kPa
Details	viscosity [mPa·s]
x2 = 0.0803	0.739
x2 = 0.1769	0.694
x2 = 0.2653	0.665
x2 = 0.3765	0.634
x2 = 0.4692	0.614
x2 = 0.5907	0.594
x2 = 0.7245	0.573
x2 = 0.8536	0.558

CCCC[N+](CCCC)(CCCC)CCCC.[OH-] + CC(=O)N(C)C
viscosity [mPa·s], 101 kPa
Details	298.15 K	303.15 K	308.15 K	313.15 K
x1 = 0.0124	1.15	1.05	0.97	0.9
x1 = 0.0388	1.63	1.47	1.38	1.23
x1 = 0.0678	2.15	1.97	1.81	1.64
x1 = 0.0996	2.67	2.47	2.25	2.06
x1 = 0.1348	3.16	2.96	2.7	2.49
x1 = 0.1538	3.44	3.22	2.96	2.71
x1 = 0.1951	3.94	3.74	3.48	3.21
x1 = 0.2666	4.74	4.48	4.21	3.94
x1 = 0.3529	5.43	5.15	4.9	4.62
x1 = 0.4589	6.02	5.73	5.48	5.21
x1 = 0.5925	6.45	6.2	5.97	5.73
x1 = 0.7026	6.63	6.37	6.14	5.93
x1 = 0.8358	6.66	6.42	6.19	5.99

O=CO + CC(=O)O
viscosity [mPa·s], 101 kPa
Details	298.15 K	323.15 K
x1 = 0.0603	1.119	0.7729
x1 = 0.1	1.286	–
x1 = 0.2	1.391	–
x1 = 0.2363	1.278	0.8526
x1 = 0.3	1.463	–
x1 = 0.4	1.506	–
x1 = 0.4165	1.425	0.9226
x1 = 0.5	1.564	–
x1 = 0.6	1.587	–
x1 = 0.613	1.52	0.9694
x1 = 0.7	1.607	–
x1 = 0.7416	1.565	0.9847
x1 = 0.8	1.607	–
x1 = 0.8864	1.565	0.9893
x1 = 0.9	1.582	–
x1 = 0.9578	1.56	0.9775
